For orientation: IC50 means the concentration needed to halve the response being measured. The low end stands for higher potency, the high end for lower potency.

Bounds are passed on as bounds.

For the first assay, the target named is T1, Tyrosine-protein phosphatase non-receptor type 2 (Homo sapiens, UniProt P17706).
T1 sequence (P17706 whole entry): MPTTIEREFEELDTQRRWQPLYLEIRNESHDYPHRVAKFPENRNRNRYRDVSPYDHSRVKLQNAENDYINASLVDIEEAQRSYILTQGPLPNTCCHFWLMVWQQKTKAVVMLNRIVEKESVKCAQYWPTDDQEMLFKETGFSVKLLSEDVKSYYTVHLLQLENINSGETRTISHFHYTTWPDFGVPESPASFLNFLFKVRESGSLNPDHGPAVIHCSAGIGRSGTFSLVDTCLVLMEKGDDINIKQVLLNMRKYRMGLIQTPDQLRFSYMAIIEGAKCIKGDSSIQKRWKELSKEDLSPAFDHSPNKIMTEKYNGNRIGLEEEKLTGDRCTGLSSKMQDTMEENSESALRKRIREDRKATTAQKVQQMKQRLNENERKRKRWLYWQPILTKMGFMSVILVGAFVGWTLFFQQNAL
The experiment in a line: Inhibition of TCPTP.
On to `CNC(=O)[C@H](Cc1ccc(NS(=O)(=O)O)cc1)NC(=O)OC(C)(C)C`, for which half-maximal inhibition (IC50) required 80.1 µM. In other words, the double-digit micromolar range. Still for that read-out and setting: the figure for `CNC(=O)[C@@H]1Cc2ccc(NS(=O)(=O)O)cc2CN1C(=O)OC(C)(C)C` is 169 µM.

Turning to `O=C(CCc1cccc(NS(=O)(=O)O)c1)N1CCc2ccc(NS(=O)(=O)O)cc2C1`, the IC50 stood at 68.6 µM. Same read-out and setting: the figure for `O=C(CCc1cccc(NS(=O)(=O)O)c1)NCc1cccc(NS(=O)(=O)O)c1` is 204 µM.

The target of the next assay is T2, Tyrosine-protein phosphatase non-receptor type 1 (Homo sapiens, UniProt P18031).
T2 sequence (P18031 whole entry): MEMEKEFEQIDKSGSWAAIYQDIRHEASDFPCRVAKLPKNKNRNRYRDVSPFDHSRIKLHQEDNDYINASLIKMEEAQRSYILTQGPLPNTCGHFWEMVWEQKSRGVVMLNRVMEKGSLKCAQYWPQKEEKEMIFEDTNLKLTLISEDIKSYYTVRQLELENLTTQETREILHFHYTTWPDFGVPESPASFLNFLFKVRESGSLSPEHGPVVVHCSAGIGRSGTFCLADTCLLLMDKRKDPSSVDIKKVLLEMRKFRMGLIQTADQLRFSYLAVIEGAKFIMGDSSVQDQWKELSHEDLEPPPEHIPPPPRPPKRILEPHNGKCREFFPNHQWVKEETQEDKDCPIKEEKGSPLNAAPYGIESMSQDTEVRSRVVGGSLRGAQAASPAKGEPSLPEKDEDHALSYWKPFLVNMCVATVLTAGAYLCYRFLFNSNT
The experiment in a line: Inhibition of PTP1B.
`CNC(=O)[C@@H]1Cc2ccc(NS(=O)(=O)O)cc2CN1C(=O)CCOc1ccccc1` showed a concentration for half-maximal inhibition (IC50) of 83.6 µM. Same read-out and setting: for `CNC(=O)[C@@H]1Cc2ccc(NS(=O)(=O)O)cc2CN1C(=O)c1ccccc1` the value was 286 µM. On the same count and under the same terms, for `CNC(=O)[C@@H]1Cc2ccc(NS(=O)(=O)O)cc2CN1C(=O)CCc1ccccc1` the value was 64.4 µM; for `CNC(=O)[C@H](Cc1ccc(NS(=O)(=O)O)cc1)NC(=O)OC(C)(C)C`, 39.6 µM; for `CNC(=O)[C@@H]1Cc2ccc(NS(=O)(=O)O)cc2CN1C(=O)OC(C)(C)C`, 42.5 µM. Still for that read-out and setting: for `CNC(=O)[C@@H]1Cc2ccc(NS(=O)(=O)O)cc2CN1C(=O)COc1cccc(O)c1C(=O)OC` the value was 93.4 µM. Molecule `CNC(=O)[C@@H]1Cc2ccc(NS(=O)(=O)O)cc2CN1C(=O)CCCCc1ccccc1` showed a half-maximal inhibitory concentration (IC50) of 148 µM. `CNC(=O)[C@@H]1Cc2ccc(NS(=O)(=O)O)cc2CN1C(=O)NCc1ccccc1` registered an IC50 of 164 µM. The IC50 values of the last two molecules are within 1.5-fold of each other. In turn, `CNC(=O)[C@@H]1Cc2ccc(NS(=O)(=O)O)cc2CN1C(=O)COc1ccccc1` showed a concentration for half-maximal inhibition (IC50) of 95.3 µM. On the same count and under the same terms, the figure for `CNC(=O)[C@@H]1Cc2ccc(NS(=O)(=O)O)cc2CN1C(=O)CCc1ccc(OC)cc1` is 242 µM; for `O=C(CCc1cccc(NS(=O)(=O)O)c1)N1CCc2ccc(NS(=O)(=O)O)cc2C1` it is 26 µM. For `CNC(=O)[C@@H]1Cc2ccc(NS(=O)(=O)O)cc2CN1C(=O)CCc1coc2ccccc12`, half-maximal inhibition (IC50) required 36.7 µM. The same measure, in the same setting: the figure for `CNC(=O)[C@@H]1Cc2ccc(NS(=O)(=O)O)cc2CN1C(=O)CCc1cccc(C(F)(F)F)c1` is 146 µM. In turn, `CC(C)COC(=O)[C@@H]1Cc2ccc(NS(=O)(=O)O)cc2CN1C(=O)OC(C)(C)C` gave a concentration for half-maximal inhibition (IC50) of 16.7 µM.

The molecule `CNC(=O)[C@@H]1Cc2ccc(NS(=O)(=O)O)cc2CN1C(=O)/C=C/c1coc2ccccc12` displayed an IC50 of 24.9 µM. Still for that read-out and setting: the figure for `CNC(=O)[C@@H]1Cc2ccc(NS(=O)(=O)O)cc2CN1C(=O)CCc1ccc(C(F)(F)F)cc1` is 225 µM; for `CC(C)(C)OC(=O)N1Cc2cc(NS(=O)(=O)O)ccc2C[C@H]1CO` it is greater than 500 µM; for `CNC(=O)[C@@H]1Cc2ccc(NS(=O)(=O)O)cc2CN1C(=O)CCCc1ccccc1` it is 271 µM. On the same count and under the same terms, for `CC(C)(C)OC(=O)N1Cc2cc(NS(=O)(=O)O)ccc2C[C@H]1C(=O)NCc1ccccc1` the value was 120 µM. On the same count and under the same terms, for `CNC(=O)[C@@H]1Cc2ccc(NS(=O)(=O)O)cc2CN1C(=O)CCc1cccc(O)c1` the value was 82.1 µM.

`CNC(=O)[C@@H]1Cc2ccc(NS(=O)(=O)O)cc2CN1C(=O)CCc1ccc(C)cc1`: the half-inhibitory concentration (IC50) came to 198 µM. This IC50 is about 2.4-fold higher than that of the molecule before.

Consider `Cc1noc([C@@H]2Cc3ccc(NS(=O)(=O)O)cc3CN2C(=O)OC(C)(C)C)n1`, for which the midpoint of inhibition, the IC50, lay at 8.23 µM. Compared with the last molecule, the IC50 is about 24-fold lower. Still for that read-out and setting: the figure for `CC(C)(C)OC(=O)N1Cc2cc(NS(=O)(=O)O)ccc2C[C@H]1C(=O)NCCc1ccccc1` is 51.4 µM. Same read-out and setting: for `CNC(=O)[C@@H]1Cc2ccc(NS(=O)(=O)O)cc2CN1C(=O)CCc1cccc(Cl)c1` the value was 101 µM; for `CNC(=O)[C@@H]1Cc2ccc(NS(=O)(=O)O)cc2CN1C(=O)[C@H](Cc1ccccc1)NC(=O)OC(C)(C)C`, greater than 500 µM. Still for that read-out and setting: for `COC(=O)[C@@H]1Cc2ccc(NS(=O)(=O)O)cc2CN1C(=O)OC(C)(C)C` the value was 19 µM. `CNC(=O)[C@@H]1Cc2ccc(NS(=O)(=O)O)cc2CN1C(=O)CCc1cc(NS(C)(=O)=O)cc(C(F)(F)F)c1` registered an IC50 of 184 µM. Still for that read-out and setting: the figure for `CNC(=O)[C@@H]1Cc2ccc(NS(=O)(=O)O)cc2CN1C(=O)CCC(=O)O` is 154 µM.

Values taken from ChEMBL document CHEMBL1139672, “1,2,3,4-Tetrahydroisoquinolinyl sulfamic acids as phosphatase PTP1B inhibitors” (Bioorg Med Chem Lett, 2006).
